Values after ≈ are worked out from the molar mass of the structure shown. Active and inactive are the calls of the source. The calls are words filed in the database; no cut-off is given here.
Key:
[1] = test system: Trypanosoma brucei rhodesiense; experiment: Antitrypanosomal activity against wild-type Trypanosoma brucei rhodesiense STIB900 infected in NMRI mouse assessed as survival of mouse at 50 mg/kg, po for 4 days; format: functional
[2] = test system: Trypanosoma brucei rhodesiense; experiment: Antitrypanosomal activity against wild-type Trypanosoma brucei rhodesiense STIB900 infected in NMRI mouse assessed as cure from infection at 15 mg/kg, po for 4 days; format: functional, organism-based; parameters: dose 15 mg/kg
[3] = test system: Trypanosoma brucei rhodesiense; experiment: Antitrypanosomal activity against wild-type Trypanosoma brucei rhodesiense STIB900 infected in NMRI mouse assessed as survival of mouse at 15 mg/kg, po for 4 days; format: functional
[4] = test system: Trypanosoma brucei rhodesiense; experiment: Antitrypanosomal activity against wild-type Trypanosoma brucei rhodesiense STIB900 infected in NMRI mouse assessed as cure from infection at 75 mg/kg, po for 4 days; format: functional, organism-based; parameters: dose 75 mg/kg
[5] = test system: Trypanosoma brucei rhodesiense; experiment: Antitrypanosomal activity against wild-type Trypanosoma brucei rhodesiense STIB900 infected in NMRI mouse assessed as survival of mouse at 75 mg/kg, po for 4 days; format: functional
[6] = test system: Trypanosoma brucei rhodesiense; experiment: Antitrypanosomal activity against wild-type Trypanosoma brucei rhodesiense STIB900 by Alamar blue assay; format: functional, organism-based
[7] = test system: Trypanosoma brucei rhodesiense; experiment: Antitrypanosomal activity against pentamidine-resistant Trypanosoma brucei rhodesiense STIB900 by Alamar blue assay; format: functional, organism-based
[8] = test system: Trypanosoma brucei rhodesiense; experiment: Antitrypanosomal activity against melasoprol-resistant Trypanosoma brucei rhodesiense STIB900 by Alamar blue assay; format: functional, organism-based
[9] = test system: Trypanosoma brucei gambiense; experiment: Antitrypanosomal activity against Trypanosoma brucei gambiense K03048 by Alamar blue assay; format: functional, organism-based
[10] = test system: Trypanosoma brucei gambiense; experiment: Antitrypanosomal activity against Trypanosoma brucei gambiense ITMAP141267 by Alamar blue assay; format: functional, organism-based
[11] = test system: Trypanosoma brucei gambiense; experiment: Antitrypanosomal activity against Trypanosoma brucei gambiense STIB930 by Alamar blue assay; format: functional, organism-based
[12] = test system: Trypanosoma brucei brucei; experiment: Antitrypanosomal activity against Trypanosoma brucei brucei BS221 by Alamar blue assay; format: functional, organism-based
[13] = test system: Trypanosoma brucei brucei; experiment: Antitrypanosomal activity against Trypanosoma brucei brucei AT1KO by Alamar blue assay; format: functional, organism-based
[14] = test system: Trypanosoma brucei rhodesiense; experiment: Ratio of IC50 for pentamidine-resistant Trypanosoma brucei rhodesiense STIB900 to IC50 for wild-type Trypanosoma brucei rhodesiense STIB900; format: functional
[15] = test system: Trypanosoma brucei rhodesiense; experiment: Ratio of IC50 for melasoprol-resistant Trypanosoma brucei rhodesiense STIB900 to IC50 for wild-type Trypanosoma brucei rhodesiense […]; format: functional
[16] = Ratio of IC50 for Trypanosoma brucei gambiense K03048 to IC50 for wild-type Trypanosoma brucei rhodesiense STIB900; format: functional
[17] = Ratio of IC50 for Trypanosoma brucei gambiense ITMAP141267 to IC50 for wild-type Trypanosoma brucei rhodesiense […]; format: functional
[18] = Ratio of IC50 for Trypanosoma brucei gambiense STIB930 to IC50 for wild-type Trypanosoma brucei rhodesiense […]; format: functional
[19] = test system: Trypanosoma brucei brucei; experiment: Ratio of IC50 for Trypanosoma brucei brucei AT1KO to IC50 for Trypanosoma brucei brucei BS221; format: functional
[20] = test system: Trypanosoma brucei gambiense; experiment: Ratio of IC50 for Trypanosoma brucei gambiense K03048 to IC50 for Trypanosoma brucei gambiense STIB930; format: functional
[21] = test system: Trypanosoma brucei rhodesiense; experiment: Antitrypanosomal activity against wild-type Trypanosoma brucei rhodesiense STIB900 infected in NMRI mouse assessed as survival of mouse at 20 mg/kg, ip for 4 days; format: functional; settings: route intraperitoneal
[22] = test system: Trypanosoma brucei rhodesiense; experiment: Antitrypanosomal activity against wild-type Trypanosoma brucei rhodesiense STIB900 infected in NMRI mouse assessed as survival of mouse at 5 mg/kg, ip for 4 days; format: functional; settings: route intraperitoneal
[23] = test system: Trypanosoma brucei brucei; experiment: Antitrypanosomal activity against Trypanosoma brucei brucei GVR35 infected in NMRI mouse CNS model assessed as cure from infection at 20 mg/kg, ip for 5 days; format: functional, organism-based; parameters: dose 20 mg/kg
[24] = test system: Trypanosoma brucei brucei; experiment: Antitrypanosomal activity against Trypanosoma brucei brucei GVR35 infected in NMRI mouse CNS model assessed as survival of mouse at 20 mg/kg, ip for 5 days; format: functional; settings: route intraperitoneal
[25] = test system: Trypanosoma brucei brucei; experiment: Antitrypanosomal activity against Trypanosoma brucei brucei GVR35 infected in NMRI mouse CNS model assessed as survival of mouse at 10 mg/kg, ip for 10 days; format: functional; settings: route intraperitoneal
[26] = test system: Mus musculus; experiment: Toxicity in NMRI mouse CNS model at 25 mg/kg, ip for 10 days; format: organism-based; parameters: dose 25 mg/kg, route intraperitoneal; settings: in vivo, 240 h

## CO/N=C(/N)c1ccc(-c2ccc(-c3ccc(/C(N)=N/O)cc3)o2)cc1
[1]
  MSD: >56 days
[2]
  Activity: inactive
[3]
  MSD: 30.25 days

## N/C(=N\O)c1ccc(-c2ccc(-c3ccc(/C(N)=N\O)cn3)o2)nc1
[4]
  Activity: inactive
[5]
  MSD: 18 days

## N=C(N)c1ccc(-c2ccc(-c3ccc(C(=N)N)cc3)o2)cc1 [FURAMIDINE]
[6]
  IC50: 1 ng/mL (≈ 0.00329 µM)
[7]
  IC50: 14.3 ng/mL (≈ 0.047 µM)
[8]
  IC50: 19 ng/mL (≈ 0.0624 µM)
[9]
  IC50: 4.2 ng/mL (≈ 0.0138 µM)
[10]
  IC50: 3.1 ng/mL (≈ 0.0102 µM)
[11]
  IC50: 5.1 ng/mL (≈ 0.0168 µM)
[12]
  IC50: 1.2 ng/mL (≈ 0.00394 µM)
[13]
  IC50: 15.8 ng/mL (≈ 0.0519 µM)
[14]
  Ratio IC50: 14.7
[15]
  Ratio IC50: 19.5
[16]
  Ratio IC50: 4.3
[17]
  Ratio IC50: 3.2
[18]
  Ratio IC50: 5.3
[19]
  Ratio IC50: 13.1
[20]
  Ratio IC50: 14
[21]
  MSD: >57.75 days
[22]
  MSD: >46 days
[23]
  Activity: inactive
[24]
  MSD: >132.3 days
[25]
  MSD: >112 days
[26]
  Activity: Toxic
